Key:
Experiment in all cases: normalised response (% of control), CellTiter-Glo; higher = more viable cells (100 = DMSO, 0 = benzethonium chloride kill control)
Conditions in all cases: incubation time: 72 h
[1] = system: BT-549
In short: (§1)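 CellTox Green fluorescence (485/520 nm) and, after 10 min at room temperature, CellTiter-Glo luminescence were read from breast cancer cell lines incubated 72 h in 384-well plates. Cells were seeded as 20 µl suspension onto compound at 5 concentrations in 10-fold steps over a 10,000-fold range chosen per compound. Each plate was normalised to 0.1 % DMSO (100) and a positive kill control (0). Values are normalised signals, one per concentration.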

[2] = system: Hs578T
In short: as §1

[3] = system: CAL-148
In short: as §1

[4] = system: CAL-51
In short: as §1

[5] = system: MDA-MB-453
In short: as §1

[6] = system: CAL-85-1
In short: as §1

[7] = system: MDA-MB-231
In short: as §1

[8] = system: MDA-MB-468
In short: as §1

[9] = system: MCF-10A
In short: as §1

[10] = system: HCC1143
In short: as §1

[11] = system: HDQ-P1
In short: as §1

[12] = system: DU-4475
In short: as §1

[13] = system: MDA-MB-436
In short: as §1

[14] = system: CAL-120
In short: as §1

[15] = system: MFM-223
In short: as §1

| Compound | normalised response [1] | normalised response [2] | normalised response [3] | normalised response [4] | normalised response [5] | normalised response [6] | normalised response [7] | normalised response [8] | normalised response [9] | normalised response [10] | normalised response [11] | normalised response [12] | normalised response [13] | normalised response [14] | normalised response [15] |
| --- | --- | --- | --- | --- | --- | --- | --- | --- | --- | --- | --- | --- | --- | --- | --- |
| COc1ccc(-c2cc3c(C)nc(N)nc3n([C@H]3CC[C@H](OCCO)CC3)c2=O)cn1 (10000 nM) | 8.65% | 5.22% | 4.36% | 0.68% | 3.84% | 4.45% | 9.59% | 4.65% | 7.97% | 7.29% | 10.8% | 0.26% | 37.1% | 26.1% | 13% |
| O=C(Nc1c[nH]nc1-c1nc2ccc(CN3CCOCC3)cc2[nH]1)NC1CC1 [AT9283] (1000 nM) | 27.8% | 54.8% | 86.1% | 83% | 185% | 59.6% | 42.4% | 31.1% | 46.2% | 60.8% | 50.8% | 72.4% | 99.5% | 46.9% | 75.5% |
| COc1cc(CCc2cc(NC(=O)c3ccc(N4CC(C)NC(C)C4)cc3)n[nH]2)cc(OC)c1 (stereo not given) [AZD4547] (1000 nM) | 88.7% | 87.6% | 93% | 108% | 85% | 105% | 103% | 104% | 74.9% | 96.5% | 93.7% | 94% | 98% | 68.2% | 53.3% |
| CCC/C=C/C=C/C(=O)O[C@H]1/C(=C/C(=O)OC)C[C@H]2C[C@H]([C@@H](C)O)OC(=O)C[C@H](O)C[C@@H]3C[C@H](OC(C)=O)C(C)(C)[C@](O)(C[C@@H]4C/C(=C/C(=O)OC)C[C@H](/C=C/C(C)(C)[C@]1(O)O2)O4)O3 [Bryostatin 1] (100 nM) | 87.9% | 88.6% | 107% | 96.5% | 103% | 98.5% | 93.1% | 98.3% | 95.7% | 94.1% | 81.5% | 97.4% | 111% | 104% | 104% |
| CO[C@@H](C(=O)N1Cc2[nH]nc(NC(=O)c3ccc(N4CCN(C)CC4)cc3)c2C1)c1ccccc1 [Danusertib] (10000 nM) | 14.7% | 46.1% | 94.9% | 31.1% | 95% | 67.8% | 42.7% | 50.1% | 17% | 47.1% | 44.2% | 37.3% | 57.5% | 22.1% | 45.6% |
| Cc1nc(Nc2ncc(C(=O)Nc3c(C)cccc3Cl)s2)cc(N2CCN(CCO)CC2)n1 [Dasatinib] (1000 nM) | 55.3% | 31.9% | 103% | 47.9% | 80.5% | 35.8% | 34.1% | 73.1% | 24.3% | 60.3% | 27.1% | 95.5% | 91.9% | 48.6% | 80.9% |
| Cc1c(CN2CCN(C(=O)[C@H](C)O)CC2)sc2c(N3CCOCC3)nc(-c3cnc(N)nc3)nc12 [GDC-0980] (10000 nM) | 19% | 20.3% | 10% | 8.48% | 9.21% | 18.2% | 34.3% | 17.8% | 17.8% | 20.7% | 10.6% | 15.7% | 43.1% | 23.2% | 26.2% |
| Nc1cccc2c1CN(C1CCC(=O)NC1=O)C2=O (stereo not given) [Lenalidomide] (10000 nM) | 98% | 98.1% | 104% | 114% | 102% | 103% | 103% | 107% | 102% | 95.3% | 93.6% | 99.3% | 91.3% | 93.6% | 100% |
| C[C@]12O[C@H](C[C@]1(O)CO)n1c3ccccc3c3c4c(c5c6ccccc6n2c5c31)CNC4=O [Lestaurtinib] (1000 nM) | 30.3% | 61.4% | 99.6% | 91.1% | 79% | 32.5% | 54.5% | 35.6% | 28.5% | 71.9% | 61.6% | 5.65% | 44.7% | 49.5% | 46.4% |
| O=C1c2c(O)ccc(O)c2C(=O)c2c(NCCNCCO)ccc(NCCNCCO)c21 [Mitoxantrone] (1000 nM) | 73.6% | 89.4% | 40.4% | 49% | 129% | 73.9% | 82.9% | 59.4% | 74.2% | 73.9% | 85% | 49.5% | 40.4% | 91.2% | 100% |
| Nc1ccccc1NC(=O)c1ccc(CNc2nccc(-c3cccnc3)n2)cc1 [Mocetinostat] (10000 nM) | 27.1% | 29% | 12.2% | 18.3% | 9.77% | 6.94% | 21.7% | 5.88% | 54.1% | 24.9% | 38.2% | 4.3% | 31.8% | 32% | 36.7% |
| COc1nc(N)nc2c1ncn2[C@@H]1O[C@H](CO)[C@@H](O)[C@@H]1O [Nelarabine] (10000 nM) | 95.8% | 90.5% | 78.7% | 143% | 81.3% | 103% | 94.3% | 87.1% | 86.2% | 94.9% | 91.6% | 97.8% | 90.1% | 98.6% | 89.5% |
| Cc1ccc(Nc2nccc(N(C)c3ccc4c(C)n(C)nc4c3)n2)cc1S(N)(=O)=O [Pazopanib] (10000 nM) | 48.1% | 88.5% | 106% | 67.5% | 91.8% | 103% | 102% | 83.3% | 102% | 97.2% | 98.1% | 104% | 106% | 89.4% | 55.8% |
| O=C(CCBr)N1CCN(C(=O)CCBr)CC1 [Pipobroman] (10000 nM) | 101% | 103% | 101% | 86.5% | 110% | 98.2% | 101% | 100% | 104% | 103% | 107% | 101% | 95% | 95.8% | 103% |
| C[C@]12C=CC(=O)C=C1CC[C@@H]1[C@@H]2[C@@H](O)C[C@@]2(C)[C@H]1CC[C@]2(O)C(=O)CO [Prednisolone] (10000 nM) | 99% | 109% | 111% | 88.8% | 94.9% | 118% | 151% | 113% | 96.4% | 112% | 84.7% | 104% | 104% | 76.9% | 101% |
| CNC(=O)c1cc(Oc2ccc(NC(=O)Nc3ccc(Cl)c(C(F)(F)F)c3)cc2)ccn1 [Sorafenib] (1000 nM) | 102% | 96% | 113% | 146% | 92.4% | 108% | 108% | 112% | 118% | 106% | 99.3% | 98.3% | 120% | 112% | 78.6% |
| CCN(CC)CCNC(=O)c1c(C)[nH]c(/C=C2\C(=O)Nc3ccc(F)cc32)c1C [Sunitinib] (1000 nM) | 108% | 97.5% | 113% | 109% | 97.3% | 107% | 102% | 107% | 66.3% | 103% | 86.1% | 94.2% | 93.7% | 82.6% | 81.8% |
